Data as given in publication PMC10269561, “Absence of Clinically Meaningful Drug-Drug Interactions with Rezafungin: Outcome of Investigations” (Microbiology Spectrum, 2023).
Numbered stars: 1 amine (or outer) side, 2 acyl side, 3 side chain; on linkers, the order of the positions; unused ones are H or OH. Bridge positions count the residues as written; N and C are the ends. Square brackets hold non-standard residues; d marks the D form. Peptide text beside a SMILES is read from it. * marks the point of attachment. Orn(4R-OH,5R-OCH2CH2NMe3+) = C[N+](C)(C)CCO[C@@H](N[*:3])[C@H](O)C[C@H](N[*:1])C(=O)[*:2]; pTerphenylCO(4''-OnC5H11) = CCCCCOc1ccc(-c2ccc(-c3ccc(C(=O)*)cc3)cc2)cc1; hTyr(3S-OH,4S-OH) = N[C@H](C(=O)O)[C@H](O)[C@@H](O)c1ccc(O)cc1; Pro(3S-OH,4S-Me) = C[C@H]1CN[C@H](C(=O)O)[C@H]1O; Hyp = O=C(O)[C@@H]1C[C@@H](O)CN1

Key:
CYP2C9 = CYP2C9 (Homo sapiens, UniProt P11712); assay: NC-153 time-dependent inhibition in human liver microsomes, CYP2C9; type: in vitro ADME; conditions: 0.1 to 25 μM
Chain of CYP2C9 (P11712 whole entry): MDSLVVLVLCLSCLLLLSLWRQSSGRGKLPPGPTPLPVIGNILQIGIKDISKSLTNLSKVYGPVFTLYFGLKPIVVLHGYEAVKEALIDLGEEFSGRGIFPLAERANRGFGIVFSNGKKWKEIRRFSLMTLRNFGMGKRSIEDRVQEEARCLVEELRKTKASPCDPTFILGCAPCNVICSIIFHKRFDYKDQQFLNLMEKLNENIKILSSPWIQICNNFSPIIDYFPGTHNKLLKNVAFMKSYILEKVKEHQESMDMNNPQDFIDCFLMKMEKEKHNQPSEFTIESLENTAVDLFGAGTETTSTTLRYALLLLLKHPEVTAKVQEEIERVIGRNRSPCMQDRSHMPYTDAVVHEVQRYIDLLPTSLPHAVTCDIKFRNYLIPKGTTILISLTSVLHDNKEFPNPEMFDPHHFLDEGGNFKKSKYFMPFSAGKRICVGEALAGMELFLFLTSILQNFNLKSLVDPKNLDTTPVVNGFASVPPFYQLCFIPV
From the text: (§1) Microbiology Spectrum Supplementary materials
(§2) Table S 4Summary of initial in vitro assessments […]
(§3) whether rezafungin can induce CYP isoforms 1A2, 2B6, or 3A4. mRNA expression) of CYP1A2 and CYP2B6, and, in the case of […]
(§4) Abbreviations: ABC = ATP binding cassette; BCRP = breast cancer resistance protein; BSEP = bile salt export pump; CYP = cytochrome P450; MATE = multidrug and toxic compound extrusion; MDCK = Madin-Darby canine kidney; MDR = multidrug resistance protein; mRNA = messenger ribonucleic acid; OAT = organic anion transporter; OATP = organic anion transporter protein; OCT – organic cation transporter; OCTN = organic cation transporter novel; P-gp = P-glycoprotein; SLC = solute carrier.

[1] = Study 2 safety and tolerability (TEAEs)
Method: After screening, subjects were admitted to the CRU on day −17 (prior to the first rezafungin dose) and were discharged on day 22. Rezafungin was dosed via i.v. infusion over 1 h at 400 mg on day 1 and 200 mg on day 8 and day 15. The oral drugs to be tested for interactions were each administered twice on a schedule designed to allow washout between doses: once alone and once while receiving rezafungin (Fig. 4B). The total duration of treatment was approximately 84 days, which included 45 days of screening and 39 days of treatment in the CRU.
In both studies, the safety population included all subjects who received any amount of the study drug. In study 1, the rezafungin safety population included all subjects who received any amount of rezafungin. Safety assessments included vital signs (temperature, heart rate, blood pressure, and respiratory rate), safety laboratory evaluations (hematology assessment, serum chemistry panel, and urinalysis), physical examinations (complete and symptom directed), and EKGs.
as §1
Abbreviations: TEAE = treatment-emergent adverse event.
N = number of subjects in the safety population; n = number of subjects in a sample.
Notes: Each TEAE was counted only once for each subject within each System Organ Class and Preferred Term.

CYP2C8 = target: T1, CYP2C8 (Homo sapiens, UniProt P10632); assay: NC-012 CYP450 inhibition screening, recombinant CYP2C8; type: in vitro ADME; conditions: fluorogenic substrate, recombinant human CYP
T1 sequence (P10632 1-490): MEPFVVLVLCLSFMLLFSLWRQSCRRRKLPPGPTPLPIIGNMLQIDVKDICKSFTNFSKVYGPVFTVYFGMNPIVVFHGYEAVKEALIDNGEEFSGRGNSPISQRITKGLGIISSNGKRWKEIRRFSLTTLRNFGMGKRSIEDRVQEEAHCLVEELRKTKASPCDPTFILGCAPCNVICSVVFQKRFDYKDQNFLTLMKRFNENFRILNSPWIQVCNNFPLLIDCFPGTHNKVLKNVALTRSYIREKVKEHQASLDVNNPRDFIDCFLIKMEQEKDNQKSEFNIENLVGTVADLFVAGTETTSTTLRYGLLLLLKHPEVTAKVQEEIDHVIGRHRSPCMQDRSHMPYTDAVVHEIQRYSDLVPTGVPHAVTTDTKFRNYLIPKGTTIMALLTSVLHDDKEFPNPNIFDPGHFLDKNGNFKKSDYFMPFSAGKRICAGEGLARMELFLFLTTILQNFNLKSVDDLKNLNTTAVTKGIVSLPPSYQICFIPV
From the text: as §1, §2, §3, §4

CYP3A4 = CYP3A4 (Homo sapiens, UniProt P08684)
Chain of CYP3A4 (P08684 whole entry): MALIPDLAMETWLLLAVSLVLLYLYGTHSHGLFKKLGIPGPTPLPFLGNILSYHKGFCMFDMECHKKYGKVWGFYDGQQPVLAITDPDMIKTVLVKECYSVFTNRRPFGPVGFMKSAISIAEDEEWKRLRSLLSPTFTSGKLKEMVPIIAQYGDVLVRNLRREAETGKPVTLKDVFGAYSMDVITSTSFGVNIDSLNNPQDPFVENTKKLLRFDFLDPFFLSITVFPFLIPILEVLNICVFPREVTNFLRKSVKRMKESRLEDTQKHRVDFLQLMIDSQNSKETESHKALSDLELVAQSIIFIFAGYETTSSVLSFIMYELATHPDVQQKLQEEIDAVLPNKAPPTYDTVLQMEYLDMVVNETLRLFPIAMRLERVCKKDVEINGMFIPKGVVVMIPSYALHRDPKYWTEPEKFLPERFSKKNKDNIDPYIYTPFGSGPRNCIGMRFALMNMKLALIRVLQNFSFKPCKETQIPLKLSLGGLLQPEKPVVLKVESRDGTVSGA
From the text: Abbreviations: ABC = ATP binding cassette; BCRP = breast cancer resistance protein; BSEP = bile salt export pump; CYP = cytochrome P450; MATE =
multidrug and toxic compound extrusion; MDCK = Madin-Darby canine kidney; MDR = multidrug resistance protein; mRNA = messenger ribonucleic acid;
OAT = organic anion transporter; OATP = organic anion transporter protein; OCT – organic cation transporter; OCTN = organic cation transporter novel; P-gp =
P-glycoprotein; SLC = solute carrier.

human MATE2-K = human MATE2-K (Homo sapiens, UniProt Q86VL8); assay: NC-152 transporter inhibition, MATE2-K; type: in vitro ADME; conditions: in vitro cell test system
Chain of human MATE2-K (Q86VL8 1-566 isoform Q86VL8-3): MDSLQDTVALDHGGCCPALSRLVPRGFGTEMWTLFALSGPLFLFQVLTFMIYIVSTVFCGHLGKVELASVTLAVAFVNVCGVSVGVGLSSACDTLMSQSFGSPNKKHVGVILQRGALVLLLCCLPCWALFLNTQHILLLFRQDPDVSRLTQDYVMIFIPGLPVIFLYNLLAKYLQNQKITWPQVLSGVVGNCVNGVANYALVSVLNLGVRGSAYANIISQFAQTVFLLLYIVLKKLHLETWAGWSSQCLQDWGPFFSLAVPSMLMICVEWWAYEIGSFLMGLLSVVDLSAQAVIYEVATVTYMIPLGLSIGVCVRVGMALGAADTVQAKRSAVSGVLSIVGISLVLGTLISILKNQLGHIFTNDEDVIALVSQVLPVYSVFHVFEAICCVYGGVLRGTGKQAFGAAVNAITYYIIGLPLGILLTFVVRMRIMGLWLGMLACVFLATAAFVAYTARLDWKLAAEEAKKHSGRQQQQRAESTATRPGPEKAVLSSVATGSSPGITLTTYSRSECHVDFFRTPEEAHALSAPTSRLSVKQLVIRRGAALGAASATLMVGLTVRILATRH
From the text: as §1, §2, §3, §4

BCRP = BCRP (Homo sapiens, UniProt Q9UNQ0); assay: NC-049 BCRP substrate potential in Caco-2 monolayers; type: in vitro ADME; conditions: with/without inhibitors
Chain of BCRP (Q9UNQ0 whole entry): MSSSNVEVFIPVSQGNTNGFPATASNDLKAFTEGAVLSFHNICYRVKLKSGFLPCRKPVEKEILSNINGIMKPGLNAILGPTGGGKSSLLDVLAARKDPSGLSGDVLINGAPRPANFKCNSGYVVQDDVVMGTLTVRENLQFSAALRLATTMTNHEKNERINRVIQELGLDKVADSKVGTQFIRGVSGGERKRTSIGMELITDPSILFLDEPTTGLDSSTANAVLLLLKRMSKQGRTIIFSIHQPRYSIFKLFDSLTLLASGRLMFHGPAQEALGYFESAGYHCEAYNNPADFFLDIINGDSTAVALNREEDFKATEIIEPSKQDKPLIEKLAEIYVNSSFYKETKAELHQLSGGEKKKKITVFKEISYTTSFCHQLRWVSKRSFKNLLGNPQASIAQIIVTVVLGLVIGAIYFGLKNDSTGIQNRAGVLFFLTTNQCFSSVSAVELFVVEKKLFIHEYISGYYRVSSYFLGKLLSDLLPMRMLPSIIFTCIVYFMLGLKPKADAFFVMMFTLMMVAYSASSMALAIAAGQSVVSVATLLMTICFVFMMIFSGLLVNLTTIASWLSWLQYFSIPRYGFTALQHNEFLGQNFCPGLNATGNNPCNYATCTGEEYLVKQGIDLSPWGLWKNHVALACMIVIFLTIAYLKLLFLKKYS
From the text: as §1, §2, §3, §4

CYP2D6 = CYP2D6 (Homo sapiens, UniProt P10635); assay: NC-153 time-dependent inhibition in human liver microsomes, CYP2D6; type: in vitro ADME; conditions: 0.1 to 25 μM
Chain of CYP2D6 (P10635 whole entry): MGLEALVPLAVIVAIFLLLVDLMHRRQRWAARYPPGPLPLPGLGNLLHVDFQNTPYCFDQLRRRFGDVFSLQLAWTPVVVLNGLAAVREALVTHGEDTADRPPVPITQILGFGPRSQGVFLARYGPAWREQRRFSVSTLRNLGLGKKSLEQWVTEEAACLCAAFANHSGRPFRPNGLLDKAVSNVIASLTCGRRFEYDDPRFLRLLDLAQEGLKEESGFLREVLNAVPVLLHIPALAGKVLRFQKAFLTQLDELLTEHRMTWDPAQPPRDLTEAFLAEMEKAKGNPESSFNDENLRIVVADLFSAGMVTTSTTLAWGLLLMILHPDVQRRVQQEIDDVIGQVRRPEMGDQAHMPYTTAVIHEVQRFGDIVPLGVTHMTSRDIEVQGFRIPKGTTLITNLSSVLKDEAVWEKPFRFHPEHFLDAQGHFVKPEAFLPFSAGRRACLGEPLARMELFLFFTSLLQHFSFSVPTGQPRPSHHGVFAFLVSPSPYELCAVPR
From the text: as §1, §2, §3, §4

human OAT1 = human OAT1 (Homo sapiens, UniProt Q4U2R8); assay: NC-152 transporter inhibition, OAT1; type: in vitro ADME; conditions: in vitro cell test system
Chain of human OAT1 (Q4U2R8 whole entry): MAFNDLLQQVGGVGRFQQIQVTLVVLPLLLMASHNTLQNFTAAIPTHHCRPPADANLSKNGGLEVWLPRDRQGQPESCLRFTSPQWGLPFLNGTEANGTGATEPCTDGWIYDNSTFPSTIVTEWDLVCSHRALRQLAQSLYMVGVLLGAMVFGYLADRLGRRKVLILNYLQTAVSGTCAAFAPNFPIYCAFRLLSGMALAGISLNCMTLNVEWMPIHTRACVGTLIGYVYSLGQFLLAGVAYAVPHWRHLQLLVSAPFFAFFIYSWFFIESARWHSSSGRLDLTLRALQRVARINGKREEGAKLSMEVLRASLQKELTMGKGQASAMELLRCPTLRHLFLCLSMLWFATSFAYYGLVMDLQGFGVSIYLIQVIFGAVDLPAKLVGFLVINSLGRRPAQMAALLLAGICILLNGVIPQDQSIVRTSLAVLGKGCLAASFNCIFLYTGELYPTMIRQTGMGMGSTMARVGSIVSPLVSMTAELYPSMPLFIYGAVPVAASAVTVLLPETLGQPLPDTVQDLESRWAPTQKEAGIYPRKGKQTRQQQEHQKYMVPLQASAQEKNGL
From the text: as §1, §2, §3, §4

human OCT2 = human OCT2 (Homo sapiens, UniProt O15244); assay: NC-152 transporter inhibition, OCT2; type: in vitro ADME; conditions: in vitro cell test system
Chain of human OCT2 (O15244 whole entry): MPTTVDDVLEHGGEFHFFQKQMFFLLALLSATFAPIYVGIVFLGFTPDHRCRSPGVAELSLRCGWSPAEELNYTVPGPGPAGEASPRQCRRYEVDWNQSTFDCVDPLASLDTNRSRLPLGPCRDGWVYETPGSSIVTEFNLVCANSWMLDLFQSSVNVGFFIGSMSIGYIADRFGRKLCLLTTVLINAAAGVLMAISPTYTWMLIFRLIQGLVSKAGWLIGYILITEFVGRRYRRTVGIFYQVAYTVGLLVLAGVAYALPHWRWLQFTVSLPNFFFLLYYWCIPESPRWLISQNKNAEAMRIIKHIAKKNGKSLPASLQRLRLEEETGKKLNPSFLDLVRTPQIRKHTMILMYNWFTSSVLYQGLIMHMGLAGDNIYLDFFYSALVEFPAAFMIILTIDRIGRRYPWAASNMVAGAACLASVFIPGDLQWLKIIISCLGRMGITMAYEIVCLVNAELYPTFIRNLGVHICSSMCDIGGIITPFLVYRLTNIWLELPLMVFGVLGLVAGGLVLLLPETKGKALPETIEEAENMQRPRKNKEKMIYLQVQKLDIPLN
From the text: as §1, §2, §3, §4

CYP1A2 = CYP1A2 (Homo sapiens, UniProt P05177); assay: NC-012 CYP450 inhibition screening, recombinant CYP1A2; type: in vitro ADME; conditions: 10 μM, fluorogenic substrate, recombinant human CYP
Chain of CYP1A2 (P05177 whole entry): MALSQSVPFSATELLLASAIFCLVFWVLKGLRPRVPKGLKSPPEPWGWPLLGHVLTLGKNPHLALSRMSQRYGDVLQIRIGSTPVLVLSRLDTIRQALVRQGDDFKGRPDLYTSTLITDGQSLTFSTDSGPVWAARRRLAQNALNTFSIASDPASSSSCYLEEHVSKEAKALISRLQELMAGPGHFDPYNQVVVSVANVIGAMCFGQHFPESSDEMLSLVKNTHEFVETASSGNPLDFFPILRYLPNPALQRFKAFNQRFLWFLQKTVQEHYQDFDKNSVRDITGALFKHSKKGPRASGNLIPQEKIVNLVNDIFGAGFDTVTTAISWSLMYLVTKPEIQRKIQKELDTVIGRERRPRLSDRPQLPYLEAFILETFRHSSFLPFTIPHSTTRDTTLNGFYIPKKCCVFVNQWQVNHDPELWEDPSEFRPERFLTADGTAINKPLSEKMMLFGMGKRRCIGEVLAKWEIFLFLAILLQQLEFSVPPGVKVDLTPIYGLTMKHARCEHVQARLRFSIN
From the text: as §1, §2, §3, §4

For `CCCCCOc1ccc(-c2ccc(-c3ccc(C(=O)N[C@H]4C[C@@H](O)[C@@H](OCC[N+](C)(C)C)NC(=O)[C@@H]5[C@@H](O)[C@@H](C)CN5C(=O)[C@H]([C@@H](C)O)NC(=O)[C@H]([C@H](O)[C@@H](O)c5ccc(O)cc5)NC(=O)[C@@H]5C[C@@H](O)CN5C(=O)[C@H]([C@@H](C)O)NC4=O)cc3)cc2)cc1` [Rezafungin] ({pTerphenylCO(4''-OnC5H11)}-[Orn(4R-OH,5R-OCH2CH2NMe3+)]T[Hyp][hTyr(3S-OH,4S-OH)]T[Pro(3S-OH,4S-Me)]; lactam 1-C), the “time-dependent inhibitor of CYP2C9” value (CYP2C9) was “not a time-dependent inhibitor”, the “deaths or serious adverse events” value ([1]; Study 2) was “no deaths or serious adverse events” and the “severe TEAE deemed by the investigator to be related to the drug” value ([1]; Study 2, one subject each) was “abdominal pain”. For the same molecule, the tolerability ([1]; once-weekly i.v. infusions, 400-mg loading dose followed by two 200-mg maintenance doses) was “generally well tolerated”, the inhibition at 10 µM (CYP2C8) was 63% and the IC50 (CYP3A4) was greater than 25 µM. For the same molecule, the “inhibitor of probe substrate transport mediated via MATE2-K” value (human MATE2-K) was “determined to be an inhibitor”, the “substrate of BCRP” value (BCRP) was “not a substrate” and the “time-dependent inhibitor of CYP2D6” value (CYP2D6) was “not a time-dependent inhibitor”. For the same molecule, the “inhibitor of probe substrate transport mediated via OAT1” value (human OAT1) was “determined to be an inhibitor”, the “inhibitor of probe substrate transport mediated via OCT2” value (human OCT2) was “determined to be an inhibitor” and the “inhibition of CYP1A2” value (CYP1A2) was “Minimal inhibition”.
